Format in all cases: cell-based
In test [1] the test system is A549 cells overexpressing BCL-2 WT. The test can be described thus: Cell viability assay, A549 stably overexpressing BCL-2 WT. The note with it: BCL2-WT A549, TAT control. As for the experimental part:
(§1) Cell viability was measured using CellTiter-Glo® 2.0 Reagent (Promega, G9242). […] After different inhibitors were added into serum-free medium and cultured for 4 h (RS4:11 for 6 h), FBS were supplemented to 10% and then incubated totally for 24 h or 48 h. Finally, the IC50 values were calculated based on measurements using a microplate reader (Thermo, Varioskan LUX). Statistical analysis was performed using software GraphPad Prism 7.0.
(§2) Lentivirus packaging vectors pMDLg/pRRE, pRSV-Rev, and pVSV-G were obtained from Prof. Han Jiahuai’s lab (Xiamen University). Lentiviruses were produced using 3rd-generation lentivirus packaging plasmids transiently transfected into HEK293T cells with the constructs of interest using 0.25 M CaCl2. Media was changed after 16 h, and supernatants containing infectious virus particles were harvested 24 h later. A second viral harvest was made following a further 24 h incubation with fresh media. Virus containing supernatant was filtered through a […], and stored at 4 °C or −80 °C until being used. Typically, A549 cells were seeded into 10 cm cell culture dishes at 4 ~ 8 × 10^5 cells/cm^2. An equivalent volume of virus containing culture medium was added along with polybrene (Sigma) to a final concentration of 10 µg/mL. Cells were incubated at 37 °C for 20 h, before they were washed and resuspended in fresh culture media. The expression level of BCL-2 was measured by qPCR and western blot methods.

In test [2] the test system is Jurkat cells. Briefly: Mitochondrial membrane potential (JC-1), flow cytometry and fluorescence microscopy. As to conditions: for Q1(%) / Q1(%)/Q3(%) / Q3(%): Figure 6d, 4h, replicate values; for ΔΨm (ratio of red over green fluorescence, Q1/Q3): 4 h treatment, JC-1, flow cytometry, n = 3. As for the experimental part: For the mitochondrial membrane potential (ΔΨm) analysis, the mitochondrial membrane potential assay kit with JC-1 dye (Beyotime, C2006) was used according to the manufacturer’s protocol. […] The value of ΔΨm was expressed as the ratio of red fluorescence intensity over green fluorescence intensity. After treated with JC-1, fluorescence intensity of Jurkat cells was tested by flow cytometry (BD FACSAria Fusion) and fluorescence microscopy (NIKON Ti-E), respectively. All experiments were performed in triplicate. Statistical analysis was performed using software GraphPad Prism 7.0.
On the technique in general: In flow cytometry, cells or beads pass a laser one at a time.

The next test deals with A549 cells (control). The test can be described thus: Cell viability assay (CellTiter-Glo), normal A549 (control). As to conditions: TAT control. As for the experimental part:
(§3) The cell lines Jurkat (TIB-152), El4 (TIB-39), Daudi (ccl-213), RS4:11 (crl-1873), A549 (ccl-185), HepG2 (hb-8065) and PANC-1 (crl-1469) were purchased from ATCC (American Type Culture Collection), and MGC-803 (C6582) was purchased from Beyotime (https://www.beyotime.com/product/C6582.htm). […] Daudi and RS4:11 cells were cultured in RPMI-1640 medium (HyClone, SH30809.01) and 10% FBS (Gibco, 10099-141), whereas HepG2, MGC-803 and PANC-1 cells were cultured in MDEM (HyClone, SH30243.01). Cells were maintained at 37 °C under a humidified, 5% (v/v) CO2-containing atmosphere.
as §1
On the technique in general: Cellular ATP, detected with luciferase, serves as a proxy for viable cell number.

Test [3] deals with A549 cells overexpressing BCL-2 G101V. Briefly: Cell viability assay, A549 stably overexpressing BCL-2 G101V. The note with it: BCL2/G101V A549, TAT control. How it is done: as §1, §2
A further test relates to PANC-1 cells. Briefly: Cell viability assay (CellTiter-Glo), PANC-1. The note with it: PNAC-1, TAT control. How it is done: as §3, §1
(§4) Supplementary Figure 10 Functional mechanism of CPs. a. IC50 values of venetoclax against A549, MGC-803 and PANC-1 cells, measured after 48 h treatment by a CellTiter-Glo assay and calculated using Prism 7.0 by a nonlinear-fit method. Data are presented as mean ± s.d.; n= 6 biological replicates. b. […]
(§5) Glo assay. Each data point represents the mean ± s.d. for 6 biological replicates.
(§6) Supplementary Figure 11 IC50 values of different inhibitors against different cell lines. a-d. Viability of A549 (a), HepG2 (b), MGC-803 (c) and PANC-1 (d) cells treated with various concentrations of ABT-199 (venetoclax), and measured after 48 h by a CellTiter-Glo assay. e, f. Viability of Jurkat cells (e) and Daudi cells (f) treated with […]
(§7) after 48 h by a CellTiter-Glo assay. Each data point represents the mean ± s.d. for 6 biological replicates.
(§8) (1 picture or pasted object on this page, not shown here)

A further test has as its system MGC-803 cells. The test can be described thus: Cell viability assay (CellTiter-Glo), MGC-803. As to conditions: TAT control. How it is done: as §3, §1, §4, §5, §6, §7, §8
The test system of the next test is RS4:11 cells. Briefly: Cell viability assay (CellTiter-Glo), RS4:11. The note with it: RS4:11, single wells. How it is done:
as §3, §1

The subject of test [4] is Jurkat cells. The test can be described thus: Apoptosis assay, Annexin V-FITC/PI staining and flow cytometry. As for the experimental part:
Jurkat cells were seeded to 6-well plates at a density of 4 ×10^5 cells per well. Cells were incubated in the presence of DMSO, venetoclax at 2.5 μM, cp1-TAT at 30 μM, cp2-TAT at 30 μM, or cp3-TAT at 20 μM in serum-free RPMI medium for 4 h. After being incubated totally for 24 h, cells were washed once with PBS and stained with 100 μL binding buffer containing 5 μL Annexin V-FITC and 10 μL PI for 15 min, followed by addition of 400 μL binding buffer to detect cell apoptosis with FCM (BD FACSAria Fusion). Statistical analysis was performed using software FlowJo V10 and GraphPad Prism 7.0.

“And” between values parts separate entries of the source, which are not always exact repeats. Equal entries are not always repeated. Starred links: 1 amine or outer side, 2 acyl side, 3 side chain; linkers in the order of their positions; H or OH if unused. Positions of bridges follow the written chain, without caps; N, C: chain ends. Residues, ends and D or L forms follow the SMILES beside them. X1 = O=C(C[*:2])NCCNC(=O)c1ccc(C2=N[C@H](C(=O)[*:1])CS2)cc1

TAT (GSGSRKKRRQRRR): the “luminescence reading (raw, replicate wells)” value in test [1] was 525300 and 568300 and 525100 and 556600 and 515500 and 559500; with A549 cells (control) (control A549), 640800 and 544000 and 632800 and 539700 and 559000 and 590400; in test [3], 540600 and 529300 and 534000 and 526600 and 523000 and 507100. Also, the “luminescence reading, everage” value in test [1] (mean of 6 wells) came to 541717; with A549 cells (control) (control A549, mean of 6 wells) it was 584450; in test [3] (mean of 6 wells), 526767. Further, the “Q1(%)” value with Jurkat cells [2] is 92.3% and 93.6% and 94.9%. Besides, the “Q1(%)/Q3(%)” value in the test on Jurkat cells [2] is 22.1343 and 27.3684 and 32.6117. Moreover, the “Q3(%)” value in the test on Jurkat cells [2] was 4.17% and 3.42% and 2.91%. Besides, in the test with Jurkat cells [2] (Jurkat), the “ΔΨm (ratio of red over green fluorescence, Q1/Q3)” value worked out at 27.37. In addition, the “average (raw viability reading)” value with A549 cells (control) (A549) is given as 422183; with PANC-1 cells, 639133; with MGC-803 cells, 627500. For the same compound, the inhibition rate in the test with A549 cells (control) (A549, fraction, replicates) is 0.1678 and 0.2197 and 0.2282 and 0.2003 and 0.1961 and 0.2135; in the test on PANC-1 cells (fraction, replicates) it was 0.2393 and 0.182 and 0.1596 and 0.1507 and 0.1102 and 0.1321; in the test with MGC-803 cells (fraction, replicates), 0.09219 and 0.04796 and 0.06436 and 0.05774 and 0.0275 and 0.04676. In addition, the raw viability reading in the test on A549 cells (control) (A549, replicates) is 409500 and 424300 and 426500 and 417300 and 441500 and 414000; with PANC-1 cells (replicates), 580400 and 624100 and 641200 and 648000 and 678900 and 662200; in the test on MGC-803 cells (replicates), 622000 and 626400 and 646500 and 633700 and 603500 and 632900.
Take `CC[C@H](C)[C@@H]1NC(=O)[C@@H]2CCCN2C(=O)[C@@H]2CSC(=N2)c2ccc(cc2)C(=O)NCCNC(=O)CSC[C@@H](C(=O)NCC(=O)N[C@@H](CO)C(=O)NCC(=O)N[C@@H](CO)C(=O)N[C@@H](CCCNC(=N)N)C(=O)N[C@@H](CCCCN)C(=O)N[C@@H](CCCCN)C(=O)N[C@@H](CCCNC(=N)N)C(=O)N[C@@H](CCCNC(=N)N)C(=O)N[C@@H](CCC(N)=O)C(=O)N[C@@H](CCCNC(=N)N)C(=O)N[C@@H](CCCNC(=N)N)C(=O)N[C@@H](CCCNC(=N)N)C(N)=O)NC(=O)[C@H](Cc2ccccc2)NC(=O)[C@H](CCC(=O)O)NC(=O)[C@H](CC(=O)O)NC(=O)[C@H](Cc2c[nH]c3ccccc23)NC(=O)[C@H](CCC(=O)O)NC(=O)[C@H](Cc2ccc(O)cc2)NC(=O)[C@H](CCCNC(=N)N)NC1=O` [cp2-TAT] (PIRYEWDEFCGSGSRKKRRQRRR-NH2; linker N-10 via X1; C-terminus assumed): the raw luminescence reading in the test with RS4:11 cells (0.0488281 uM) is 377400 and 399400 and 472900 and 398600 and 396500 and 376600; with RS4:11 cells (0.0976562 uM), 367900 and 411600 and 442500 and 406100 and 405700 and 384000; in the test with RS4:11 cells (0.195312 uM), 397400 and 403000 and 448800 and 404500 and 392400 and 382800; in the test with RS4:11 cells (0.390625 uM), 444700 and 450800 and 451700 and 438000 and 424700 and 412100; in the test with RS4:11 cells (0.78125 uM), 472600 and 478400 and 471500 and 453400 and 442900 and 434600; with RS4:11 cells (1.5625 uM) it was 448100 and 455300 and 501800 and 445000 and 424900 and 404900. The raw luminescence reading is 365800 and 401400 and 456400 and 498100 and 396600 and 403200 in the test with RS4:11 cells (3.125 uM); 354100 and 405500 and 450900 and 485900 and 401500 and 412400 in the test with RS4:11 cells (6.25 uM); 349800 and 390500 and 462000 and 475300 and 407800 and 417800 in the test with RS4:11 cells (12.5 uM); 354900 and 371900 and 417300 and 420500 and 396000 and 400300 in the test on RS4:11 cells (25 uM); 273500 and 288400 and 308900 and 317300 and 306600 and 319600 in the test with RS4:11 cells (50 uM); 86770 and 92180 and 107300 and 109400 and 97150 and 101700 in the test on RS4:11 cells (100 uM). Besides, the inhibition rate is 9% with RS4:11 cells (0.0488281 uM, 0.0488281 µM); -7.55% and -9% and -6% and -2.71% and 0.339% in the test with RS4:11 cells (0.390625 uM, 0.390625 µM); -14% with RS4:11 cells (0.78125 uM, 0.78125 µM); 34% and 30% and 25% and 23% and 26% in the test on RS4:11 cells (50 uM, 50 µM); 79% and 78% and 74% and 77% and 75% with RS4:11 cells (100 uM, 100 µM). The “Q1(%)” value with Jurkat cells [2] is 90.3% and 89.6% and 90%. Further, the “Q1(%)/Q3(%)” value in the test on Jurkat cells [2] is 12.1534 and 10.7049 and 11.4358. Moreover, in the test with Jurkat cells [2], the “Q3(%)” value was 7.43% and 8.37% and 7.87%. Besides, the “ΔΨm (ratio of red over green fluorescence, Q1/Q3)” value in the test on Jurkat cells [2] (Jurkat) came to 11.43. The “Relative ΔΨm by JC-1 fluorescence staining (microscopy)” value in the test on Jurkat cells [2] (Jurkat, 24 h treatment (Supplementary Fig. 13)) is “slightly decreased”. In addition, the “cell apoptosis(%)” value with Jurkat cells [4] (Figure 6b, replicate values) was 18.83% and 24.52%. Further, the “Proportion of apoptotic cells” value in the test with Jurkat cells [4] (Jurkat, 24 h, 30 μM) is recorded as 18.83%.

The values are drawn from paper PMC10874388, “Cyclic peptides discriminate BCL-2 and its clinical mutants from BCL-XL by engaging a single-residue discrepancy” (Nature Communications, 2024).
